Test results as given in ChEMBL document CHEMBL1201862, “PubChem BioAssay data set” (2004).
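The compound was tested at five concentrations on cells cultured in 96-well plates, with a 48-hour exposure period. Here, GI50 denotes the concentration required for 50% inhibition of growth.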 Calls of active or inactive are those of the source. No stated cut-off is given here; in the data, active = GI50 up to about 1.1 µM and inactive = higher.

What was measured:
Assay in all cases: inhibition of tumour cell growth, NCI panel, 48 h
SNB-19 = tested on: SNB-19
SR = tested on: SR
SK-OV-3 = tested on: SK-OV-3
HCT-15 = tested on: HCT-15
HOP-92 = tested on: HOP-92
NCI-H226 = tested on: NCI-H226
CCRF-CEM = tested on: CCRF-CEM
786-0 = tested on: 786-0
SNB-75 = tested on: SNB-75
OVCAR-8 = tested on: OVCAR-8
BT-549 = tested on: BT-549
OVCAR-5 = tested on: OVCAR-5
OVCAR-4 = tested on: OVCAR-4
COLO 205 = tested on: COLO 205
EKVX = tested on: EKVX
SN12C = tested on: SN12C
KM12 = tested on: KM12
MDA-MB-435 = tested on: MDA-MB-435
LOX IMVI = tested on: LOX IMVI

SMILES | GI50 (SNB-19) | GI50 (SR) | GI50 (SK-OV-3) | GI50 (HCT-15) [µM] | GI50 (HOP-92) | GI50 (NCI-H226) | GI50 (CCRF-CEM) | GI50 (786-0) | GI50 (SNB-75) | GI50 (OVCAR-8) | GI50 (BT-549) | GI50 (OVCAR-5) | GI50 (OVCAR-4) | GI50 (COLO 205) | GI50 (EKVX) | GI50 (SN12C) | GI50 (KM12) | GI50 (MDA-MB-435) | GI50 (LOX IMVI)
O=[N+]([O-])c1ccc2nc(-c3ccccn3)c(-c3ccccn3)nc2c1 | > 100 µM (inactive) | 33.1 µM (inactive) | > 100 µM (inactive) | 43 | > 100 µM (inactive) | > 100 µM (inactive) | 69.8 µM (inactive) | > 100 µM (inactive) | > 100 µM (inactive) | 94 µM (inactive) | > 100 µM (inactive) | > 100 µM (inactive) | > 100 µM (inactive) | 30.5 µM (inactive) | 71 µM (inactive) | > 100 µM (inactive) | > 100 µM (inactive) | > 100 µM (inactive) | 
O=c1[nH]c(=O)n(CCOCP(=O)(O)O)nc1Br | > 100 µM (inactive) | > 100 µM (inactive) |  | > 100 | > 100 µM (inactive) | > 100 µM (inactive) | > 100 µM (inactive) |  | > 100 µM (inactive) | > 100 µM (inactive) | > 100 µM (inactive) | > 100 µM (inactive) |  | > 100 µM (inactive) | > 100 µM (inactive) | > 100 µM (inactive) | > 100 µM (inactive) | > 100 µM (inactive) | > 100 µM (inactive)
Cc1c(N2C(=O)/C(=C/C=C/c3ccccc3)N=C2c2ccccc2)c(=O)n(-c2ccccc2)n1C |  | 17.4 µM (inactive) | 23 µM (inactive) | 5.45 | 22.2 µM (inactive) | 24.7 µM (inactive) | 27.2 µM (inactive) | 29.3 µM (inactive) | 3.78 µM (inactive) | 26.1 µM (inactive) | 20.1 µM (inactive) | 24.8 µM (inactive) | 17.8 µM (inactive) | 15.5 µM (inactive) | 15.6 µM (inactive) | 24.5 µM (inactive) | 25.5 µM (inactive) | 17 µM (inactive) | 21.5 µM (inactive)
[N-]=[N+]=Nc1c(-c2ccccc2)c(=O)n(-c2ccccc2)c2ccccc12 |  | > 100 µM (inactive) | > 100 µM (inactive) | 38.2 | 49.4 µM (inactive) | 91.4 µM (inactive) | > 100 µM (inactive) | > 100 µM (inactive) | 36.4 µM (inactive) | 90.2 µM (inactive) | > 100 µM (inactive) |  | 64 µM (inactive) | 62.1 µM (inactive) | 17.6 µM (inactive) | 60.8 µM (inactive) | 67.6 µM (inactive) | 60.8 µM (inactive) | 63.2 µM (inactive)
O=c1c(C(c2ccc(C(c3c(O)oc4cc(O)ccc4c3=O)c3c(O)oc4cc(O)ccc4c3=O)cc2)c2c(O)oc3cc(O)ccc3c2=O)c(O)oc2cc(O)ccc12 |  | > 100 µM (inactive) | > 100 µM (inactive) | > 100 | > 100 µM (inactive) | > 100 µM (inactive) | 53.2 µM (inactive) |  | > 100 µM (inactive) | > 100 µM (inactive) | > 100 µM (inactive) | > 100 µM (inactive) | 93.1 µM (inactive) | 53.3 µM (inactive) | > 100 µM (inactive) | 93.1 µM (inactive) |  | > 100 µM (inactive) | > 100 µM (inactive)
[O-][Cl+3]([O-])([O-])[O-].[O-][Cl+3]([O-])([O-])[O-].c1ccn2c(N3CCCC3)[n+]3c4ccccc4n4c(N5CCCC5)[n+]5ccccc5c4c3c2c1 | 29.4 µM (inactive) | 38.1 µM (inactive) |  | > 100 | 73.1 µM (inactive) | 0.745 µM (active) | > 100 µM (inactive) | 27.6 µM (inactive) | 18.7 µM (inactive) | 25.4 µM (inactive) | 30.9 µM (inactive) | > 100 µM (inactive) | > 100 µM (inactive) | 20 µM (inactive) | > 100 µM (inactive) | 8 µM (inactive) | 40.3 µM (inactive) | > 100 µM (inactive) | > 100 µM (inactive)
